The source of these data is PubChem BioAssay (NCI).

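Cells were grown in 96-well plates and exposed to each compound for 48 hours at five concentrations; endpoints were interpolated linearly between bracketing concentrations, or set to the highest concentration if not reached. At the GI50, growth is halved. TGI denotes the concentration required for complete inhibition of growth.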

The test system of the first experiment is HCT-116 colon. The experiment in a line: NCI-60 cell line screen, 48 h.
Regarding `CSc1nsc(-c2ccccc2)[s+]1`, the TGI was more than 100 µM.

In turn, `Oc1ccc([I+]c2ccccc2)cc1O` showed a TGI of more than 100 µM.

On to `Cc1ccc(-c2[nH]c(=O)n(C3OC(CO)C(O)C(O)C3O)c(=O)c2C#N)cc1` (stereo unspecified), for which the TGI is more than 100 µM.

On to `CCN(CC)CCN(C(=Nc1ccccc1)N1CCOCC1)c1ccccc1`, for which the TGI is 89.8 µM.

As to `Cc1cc(C(=O)CCCCOc2ccc(C3=NCCO3)cc2)c(C)n1C`, the TGI is more than 100 µM.

The subject of a further experiment is MDA-N. The experiment in a line: NCI-60 cell line screen, 48 h.
`O=C1NCC2(CCN(CCCC3(c4ccc(F)cc4)OCCO3)CC2)N1c1ccccc1` came in with a TGI of more than 100 µM.

On to `O=C1c2ccccc2-c2c1c(-c1ccc(F)cc1)nc1ccc3ccccc3c21`, for which the TGI was more than 100 µM.

In turn, `O=C(Nc1nccs1)c1c(O)nc2sccn2c1=O` returned a TGI of more than 10 µM.

In turn, `O=C1NCCN1/N=C/c1c(Cl)n(-c2ccccc2)c2ccccc12` gave a TGI of 21.6 µM.

The compound `CCC1(CC)C(=O)NN(C(=O)c2ccccc2)C1=O` came in with a TGI of more than 100 µM.

For the compound `CC1CCC(C(=O)O)(C(Br)C(=O)O)CC1` (stereo unspecified), the TGI is more than 100 µM.

The compound `COc1cc(NS(C)(=O)=O)ccc1Nc1cc(C)[nH]c2ccc3nccc3c12` came in with a TGI of more than 100 µM.

The compound `CCCC(=O)OC1CC(n2cc(F)c(=O)[nH]c2=O)OC1COP(=O)(OCC(Cl)(Cl)Cl)OCC(Cl)(Cl)Cl` (stereo unspecified) displayed a TGI of more than 31.6 µM.

On to `O=[N+]([O-])C(/C=C(\Cl)n1nnc2ccccc21)=C(/Cl)n1nnc2ccccc21`, for which the TGI was more than 100 µM.

As for `N#Cc1c(-c2ccccc2)/c(=C\Nc2ccc(F)cc2)c(=O)n2c1nc1ccccc12`, the TGI turned out to be 57.9 µM.

As to `COc1ccc2c(C)cc(=O)oc2c1OC`, the TGI is more than 100 µM.

With `COc1ccc2c(c1)OCC1Cc3ccccc3OC21` (stereo unspecified), the TGI is more than 10 µM.

With `Cc1ccc(C(=C2Sc3ccccc3S2)C(=C2Sc3ccccc3S2)c2ccc(C)s2)s1`, the TGI is more than 100 µM.

`CCOC(=O)c1cn2c(nc1=O)N[C@H]1CCCC[C@@H]12`: the TGI was more than 100 µM.

`COP(=O)(/C=C/c1cc(C(=O)OCc2ccccc2)n(S(=O)(=O)c2ccccc2)c1)OC` showed a TGI of more than 100 µM.

With `CCNC(=O)Cc1nc2c(N)ncnc2n1C1OC(CO)C(O)C1O` (stereo unspecified), the TGI is more than 100 µM.

For `Cc1nc(N)c(N2CCN([N+](=O)[O-])CC2)c(=O)[nH]1`, the TGI was more than 100 µM.

`Oc1ccc([I+]c2ccccc2)cc1O` returned a TGI of more than 100 µM.

Compound `Cc1cc(C(=O)CCCCOc2ccc(C3=NCCO3)cc2)c(C)n1C` gave a TGI of 88 µM.

For another experiment, the system named is SN12C renal. In words: NCI-60 cell line screen, 48 h.
Turning to `O=C1NCC2(CCN(CCCC3(c4ccc(F)cc4)OCCO3)CC2)N1c1ccccc1`, the TGI was more than 100 µM.

`O=C1c2ccccc2-c2c1c(-c1ccc(F)cc1)nc1ccc3ccccc3c21`: the TGI is more than 100 µM.

For `O=C(Nc1nccs1)c1c(O)nc2sccn2c1=O`, the TGI was more than 10 µM.

With `O=C1NCCN1/N=C/c1c(Cl)n(-c2ccccc2)c2ccccc12`, the TGI stood at 40.2 µM.

Turning to `CO[C@H]1/C=C(/C)CCC[C@H](C)[C@H](O)[C@@H](C)C(=O)C(C)(C)[C@@H](O)CC(=O)O[C@@H]1/C(C)=C/c1csc(C)n1`, the GI50 is 0.0488 µM and the TGI is more than 100 µM.

As for `CCC1(CC)C(=O)NN(C(=O)c2ccccc2)C1=O`, the TGI was more than 100 µM.

Consider `CC1CCC(C(=O)O)(C(Br)C(=O)O)CC1` (stereo unspecified), for which the TGI is more than 100 µM.

`COc1cc(NS(C)(=O)=O)ccc1Nc1cc(C)[nH]c2ccc3nccc3c12` gave a TGI of more than 100 µM.

`CN(C)c1ccc(C(=N/N=C2\C(=O)Nc3ccccc32)c2ccc(N(C)C)cc2)cc1` showed a TGI of 46.8 µM.

`CCCC(=O)OC1CC(n2cc(F)c(=O)[nH]c2=O)OC1COP(=O)(OCC(Cl)(Cl)Cl)OCC(Cl)(Cl)Cl` (stereo unspecified) showed a TGI of more than 100 µM.

In turn, `O=[N+]([O-])C(/C=C(\Cl)n1nnc2ccccc21)=C(/Cl)n1nnc2ccccc21` displayed a TGI of more than 100 µM.

`N#Cc1c(-c2ccccc2)/c(=C\Nc2ccc(F)cc2)c(=O)n2c1nc1ccccc12`: the TGI was 82.9 µM.

In turn, `COc1ccc2c(C)cc(=O)oc2c1OC` gave a TGI of more than 100 µM.

Take `CN(C)c1ccc(S(=O)Nc2ccccc2)cc1` (stereo unspecified): the TGI is more than 100 µM.

`COc1ccc2c(c1)OCC1Cc3ccccc3OC21` (stereo unspecified) came in with a TGI of more than 100 µM.

In the case of `Cc1cc2c3c(nc4ccccc42)C(=O)c2ccccc2-c3n1`, the TGI was more than 100 µM.

Consider `CCOC(=O)c1c(C)nc2c3ccccc3c(C#N)c(C)n12`, for which the TGI was more than 100 µM.

The compound `Cc1ccc(C(=C2Sc3ccccc3S2)C(=C2Sc3ccccc3S2)c2ccc(C)s2)s1` returned a TGI of more than 100 µM.

Take `CCOC(=O)c1cn2c(nc1=O)N[C@H]1CCCC[C@@H]12`: the TGI is more than 100 µM.

`CC1=NS(=O)(=O)c2ccccc2N1` had a TGI of more than 100 µM.

Turning to `COP(=O)(/C=C/c1cc(C(=O)OCc2ccccc2)n(S(=O)(=O)c2ccccc2)c1)OC`, the TGI was more than 100 µM.

For the compound `COc1ccc(NC(=O)CC(=O)N2N=C(N3c4ccccc4Sc4ccccc43)CC2c2ccccc2)cc1` (stereo unspecified), the TGI is more than 100 µM.

Consider `CCNC(=O)Cc1nc2c(N)ncnc2n1C1OC(CO)C(O)C1O` (stereo unspecified), for which the TGI was more than 100 µM.

On to `Cc1nc(N)c(N2CCN([N+](=O)[O-])CC2)c(=O)[nH]1`, for which the TGI is more than 100 µM.

As for `CSc1nsc(-c2ccccc2)[s+]1`, the TGI was more than 100 µM.

`Oc1ccc([I+]c2ccccc2)cc1O`: the TGI is more than 100 µM.

In the case of `Cc1ccc(-c2[nH]c(=O)n(C3OC(CO)C(O)C(O)C3O)c(=O)c2C#N)cc1` (stereo unspecified), the TGI was more than 100 µM.

In turn, `CCN(CC)CCN(C(=Nc1ccccc1)N1CCOCC1)c1ccccc1` came in with a TGI of more than 100 µM.

As for `Cc1cc(C(=O)CCCCOc2ccc(C3=NCCO3)cc2)c(C)n1C`, the TGI is more than 100 µM.

For the next experiment, the system named is UACC-257 melanoma. The experiment in a line: NCI-60 cell line screen, 48 h.
Compound `O=C1NCC2(CCN(CCCC3(c4ccc(F)cc4)OCCO3)CC2)N1c1ccccc1` came in with a TGI of more than 100 µM.

Compound `O=C1c2ccccc2-c2c1c(-c1ccc(F)cc1)nc1ccc3ccccc3c21` showed a TGI of more than 100 µM.

`O=C1NCCN1/N=C/c1c(Cl)n(-c2ccccc2)c2ccccc12` had a TGI of 58.5 µM.

As for `CO[C@H]1/C=C(/C)CCC[C@H](C)[C@H](O)[C@@H](C)C(=O)C(C)(C)[C@@H](O)CC(=O)O[C@@H]1/C(C)=C/c1csc(C)n1`, the GI50 was 0.0452 µM and the TGI was more than 100 µM.

`CCC1(CC)C(=O)NN(C(=O)c2ccccc2)C1=O` yielded a TGI of more than 100 µM.

`CC1CCC(C(=O)O)(C(Br)C(=O)O)CC1` (stereo unspecified) yielded a TGI of more than 100 µM.

Take `COc1cc(NS(C)(=O)=O)ccc1Nc1cc(C)[nH]c2ccc3nccc3c12`: the TGI is more than 100 µM.

For the compound `CN(C)c1ccc(C(=N/N=C2\C(=O)Nc3ccccc32)c2ccc(N(C)C)cc2)cc1`, the TGI was more than 83.8 µM.

`CCCC(=O)OC1CC(n2cc(F)c(=O)[nH]c2=O)OC1COP(=O)(OCC(Cl)(Cl)Cl)OCC(Cl)(Cl)Cl` (stereo unspecified) registered a TGI of more than 92 µM.

`O=[N+]([O-])C(/C=C(\Cl)n1nnc2ccccc21)=C(/Cl)n1nnc2ccccc21` showed a TGI of more than 100 µM.

Consider `N#Cc1c(-c2ccccc2)/c(=C\Nc2ccc(F)cc2)c(=O)n2c1nc1ccccc12`, for which the TGI is more than 100 µM.
